Each structure is given as a SMILES string. The source made the active and inactive calls. No rule for the calls is given here.

This data set has as its system CCRIS mutagenicity, Ames/micronucleus/aberration tests. Briefly: CCRIS mutagenicity studies.
Setting [1] is: Test System: AMES SALMONELLA TYPHIMURIUM, Strain/Indicator: TA98, Metabolic Activation: NONE, Method: PREINCUBATION
Where [2] appears, read: Test System: AMES SALMONELLA TYPHIMURIUM, Strain/Indicator: TA100, Metabolic Activation: NONE, Method: PREINCUBATION
The mark [3] stands for this setting: Test System: AMES SALMONELLA TYPHIMURIUM, Strain/Indicator: TA98, Metabolic Activation: NONE, Method: STANDARD PLATE.
Where [4] appears, read: Test System: AMES SALMONELLA TYPHIMURIUM, Strain/Indicator: TA98, Metabolic Activation: RAT, LIVER, S-9, AROCLOR 1254, Method: STANDARD PLATE.
The mark [5] stands for this setting: Test System: AMES SALMONELLA TYPHIMURIUM, Strain/Indicator: TA100, Metabolic Activation: NONE, Method: STANDARD PLATE.
[6] abbreviates: Test System: AMES SALMONELLA TYPHIMURIUM, Strain/Indicator: TA100, Metabolic Activation: RAT, LIVER, S-9, AROCLOR 1254, Method: STANDARD PLATE.

Turning to `Cc1cc(C)c2nc3c(ccc4ccccc43)c(C)c2c1`, the mutagenic call by setting is: (Test System: AMES SALMONELLA TYPHIMURIUM, Strain/Indicator: TA97A, Metabolic Activation: NONE, Method: PREINCUBATION) “inactive; negative”; under setting [1], “active; positive”; under setting [2], “active; positive”; (Test System: AMES SALMONELLA TYPHIMURIUM, Strain/Indicator: TA102, Metabolic Activation: NONE, Method: PREINCUBATION) “inactive; negative”.
Turning to `O=C1c2ccccc2C(=O)c2cc(CO)ccc21`, the mutagenic call by setting is: under setting [1], “inactive; negative”; (Test System: AMES SALMONELLA TYPHIMURIUM, Strain/Indicator: TA98, Metabolic Activation: RAT, LIVER, S-9, PCB, Method: PREINCUBATION) “inactive; negative”; under setting [2], “inactive; negative”; (Test System: AMES SALMONELLA TYPHIMURIUM, Strain/Indicator: TA100, Metabolic Activation: RAT, LIVER, S-9, PCB, Method: PREINCUBATION) “inactive; negative”; (Test System: UDS RODENT HEPATOCYTES, Strain/Indicator: THY INCORP (NON-S-PHASE), Metabolic Activation: NONE, Method: AUTORADIOGRAPHY) “inactive; negative”; (Test System: UDS RODENT HEPATOCYTES, Strain/Indicator: THY INCORP (NON-S-PHASE), Metabolic Activation: PHENOBARBITAL, Method: AUTORADIOGRAPHY) “active; positive”.
As to `O=c1cc(CO)occ1O`, the mutagenic call (End Point: IN VIVO MICRONUCLEUS, Test System: HEPATOCYTES, Species: RAT, Strain/Sex: FISHER 344 OR SD/MALE, Route: ORAL OR IP) is “inactive; negative”; the mutagenic call (End Point: IN VIVO MICRONUCLEUS, Test System: PERIPHERAL BLOOD RETICULOCYTES, Species: RAT, Strain/Sex: FISHER 344 OR SD/MALE, Route: ORAL OR IP) was “active; positive”; the mutagenic call (End Point: In vivo micronucleus, Test System: Mononucleated hepatocytes/1000 hepatocytes, Species: Mouse, Strain/Sex: Ddy/Male, Route: Oral) was “active; positive (dose related increase, significant only at high dose)”; the mutagenic call (End Point: In vivo micronucleus, Test System: Mononucleated hepatocytes/1000 hepatocytes, Species: Rat, Strain/Sex: F344/Male, Route: Oral) was “active; positive (dose related increase, significant only at high dose)”; the mutagenic call under setting [1] is “active; positive”; the mutagenic call under setting [3] is “active; positive”. The mutagenic call reads like this: (Test System: AMES SALMONELLA TYPHIMURIUM, Strain/Indicator: TA98, Metabolic Activation: RAT, LIVER, S-9, AROCLOR 1254, Method: PREINCUBATION) “active; positive”; under setting [4], “active; positive”; under setting [5], “active; positive”; (Test System: AMES SALMONELLA TYPHIMURIUM, Strain/Indicator: TA100, Metabolic Activation: RAT, LIVER, MICROSOMES, PHENOBARBITAL, Method: STANDARD PLATE) “active; positive”; (Test System: AMES SALMONELLA TYPHIMURIUM, Strain/Indicator: TA100, Metabolic Activation: RAT, LIVER, S-9, AROCLOR 1254, Method: PREINCUBATION) “inactive; negative”; under setting [6], “active; positive”. The mutagenic call by setting is: (Test System: AMES SALMONELLA TYPHIMURIUM, Strain/Indicator: TA100, Metabolic Activation: RAT, LIVER, S-9, PHENOBARBITAL, Method: PREINCUBATION) “inactive; negative”; (Test System: Ames Salmonella typhimurium, Strain/Indicator: TA100, Metabolic Activation: None, Method: Preincubation) “active; positive”; (Test System: Ames Salmonella typhimurium, Strain/Indicator: TA100, Metabolic Activation: Rat, Liver, S-9, Phenobarbital and 6-naphthoflavone, Method: Preincubation) “active; positive”.
Consider `CCOC(=O)c1ccccc1C(=O)OCC`, for which the mutagenic call is, setting by setting: (Test System: AMES SALMONELLA TYPHIMURIUM, Strain/Indicator: TA98, Metabolic Activation: HAMSTER, LIVER, S-9, AROCLOR 1254 (10%), Method: PREINCUBATION) “inactive; negative”; under setting [1], “inactive; negative”; (Test System: AMES SALMONELLA TYPHIMURIUM, Strain/Indicator: TA98, Metabolic Activation: RAT, LIVER, S-9, AROCLOR 1254 (10%), Method: PREINCUBATION) “inactive; negative”; (Test System: AMES SALMONELLA TYPHIMURIUM, Strain/Indicator: TA100, Metabolic Activation: HAMSTER, LIVER, S-9, AROCLOR 1254 (10%), Method: PREINCUBATION) “inactive; negative”; under setting [2], “inactive; negative”; under setting [5], “active; positive”. Besides, the mutagenic call reads like this: (Test System: AMES SALMONELLA TYPHIMURIUM, Strain/Indicator: TA100, Metabolic Activation: RAT, LIVER, S-9, AROCLOR 1254 (10%), Method: PREINCUBATION) “inactive; negative”; (Test System: AMES SALMONELLA TYPHIMURIUM, Strain/Indicator: TA100, Metabolic Activation: S-9, Method: STANDARD PLATE) “inactive; negative”; (Test System: AMES SALMONELLA TYPHIMURIUM, Strain/Indicator: TA1535, Metabolic Activation: HAMSTER, LIVER, S-9, AROCLOR 1254 (10%), Method: PREINCUBATION) “inactive; negative”; (Test System: AMES SALMONELLA TYPHIMURIUM, Strain/Indicator: TA1535, Metabolic Activation: NONE, Method: PREINCUBATION) “inactive; negative”; (Test System: AMES SALMONELLA TYPHIMURIUM, Strain/Indicator: TA1535, Metabolic Activation: NONE, Method: STANDARD PLATE) “active; positive”; (Test System: AMES SALMONELLA TYPHIMURIUM, Strain/Indicator: TA1535, Metabolic Activation: RAT, LIVER, S-9, AROCLOR 1254 (10%), Method: PREINCUBATION) “inactive; negative”. The mutagenic call runs as follows: (Test System: AMES SALMONELLA TYPHIMURIUM, Strain/Indicator: TA1535, Metabolic Activation: S-9, Method: STANDARD PLATE) “inactive; negative”; (Test System: AMES SALMONELLA TYPHIMURIUM, Strain/Indicator: TA1537, Metabolic Activation: HAMSTER, LIVER, S-9, AROCLOR 1254 (10%), Method: PREINCUBATION) “inactive; negative”; (Test System: AMES SALMONELLA TYPHIMURIUM, Strain/Indicator: TA1537, Metabolic Activation: NONE, Method: PREINCUBATION) “inactive; negative”; (Test System: AMES SALMONELLA TYPHIMURIUM, Strain/Indicator: TA1537, Metabolic Activation: RAT, LIVER, S-9, AROCLOR 1254 (10%), Method: PREINCUBATION) “inactive; negative”.
In the case of `CCCOc1cc(N=Nc2ccccc2)ccc1N=Nc1c(S(=O)(=O)O)cc2ccc(N)cc2c1O`, the mutagenic call by setting is: under setting [3], “inactive; negative”; under setting [4], “active; positive”; under setting [5], “inactive; negative”; under setting [6], “inactive; negative”; (Test System: AMES SALMONELLA TYPHIMURIUM, Strain/Indicator: TA1538, Metabolic Activation: NONE, Method: STANDARD PLATE) “inactive; negative”; (Test System: AMES SALMONELLA TYPHIMURIUM, Strain/Indicator: TA1538, Metabolic Activation: RAT, LIVER, S-9, AROCLOR 1254, Method: STANDARD PLATE) “active; positive”.
For `Fc1ccccn1`, the mutagenic call (Test System: AMES SALMONELLA TYPHIMURIUM, Strain/Indicator: TA97, Metabolic Activation: NONE, Method: STANDARD PLATE) is “inactive; negative”; the mutagenic call (Test System: AMES SALMONELLA TYPHIMURIUM, Strain/Indicator: TA97, Metabolic Activation: RAT, LIVER, S-9, AROCLOR 1254, Method: STANDARD PLATE) was “inactive; negative”; the mutagenic call under setting [3] was “inactive; negative”; the mutagenic call under setting [4] is “active; positive”; the mutagenic call under setting [5] was “inactive; negative”; the mutagenic call under setting [6] was “inactive; negative”. The mutagenic call is, setting by setting: (Test System: AMES SALMONELLA TYPHIMURIUM, Strain/Indicator: TA102, Metabolic Activation: NONE, Method: STANDARD PLATE) “inactive; negative”; (Test System: AMES SALMONELLA TYPHIMURIUM, Strain/Indicator: TA102, Metabolic Activation: RAT, LIVER, S-9, AROCLOR 1254, Method: STANDARD PLATE) “inactive; negative”.

Values taken from PubChem BioAssay AID1259407 (Chemical Carcinogenesis Research Information System (CCRIS), 2018).
